Laboratory results published in PubChem BioAssay (NCI).
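These data come from cells grown in 96-well plates and exposed to compound for 48 hours at five concentrations. GI50 marks 50% less growth. TGI: total growth inhibition.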

Tests used:
Assay in all cases: growth of human tumour cells (NCI), 48 h
A549 NSCLC = test system: A549 NSCLC
T-47D breast = test system: T-47D breast
A498 renal = test system: A498 renal
CCRF-CEM leukemia = test system: CCRF-CEM leukemia
COLO 205 colon = test system: COLO 205 colon
RPMI-8226 leukemia = test system: RPMI-8226 leukemia
SNB-19 CNS = test system: SNB-19 CNS
HOP-62 NSCLC = test system: HOP-62 NSCLC
KM12 colon = test system: KM12 colon
OVCAR-5 ovarian = test system: OVCAR-5 ovarian
SK-MEL-2 melanoma = test system: SK-MEL-2 melanoma
SK-MEL-5 melanoma = test system: SK-MEL-5 melanoma
NCI-H23 lung = test system: NCI-H23 lung
TK-10 renal = test system: TK-10 renal
HCT-15 colon = test system: HCT-15 colon
RXF 393 renal = test system: RXF 393 renal
HOP-92 NSCLC = test system: HOP-92 NSCLC
HT29 colon = test system: HT29 colon
PC-3 prostate = test system: PC-3 prostate
M14 melanoma = test system: M14 melanoma
SK-OV-3 ovarian = test system: SK-OV-3 ovarian
EKVX NSCLC = test system: EKVX NSCLC
NCI/ADR-RES ovarian = test system: NCI/ADR-RES ovarian
LOX IMVI melanoma = test system: LOX IMVI melanoma
SNB-75 CNS = test system: SNB-75 CNS
SK-MEL-28 melanoma = test system: SK-MEL-28 melanoma
SN12C renal = test system: SN12C renal
IGROV1 ovarian = test system: IGROV1 ovarian
UACC-257 melanoma = test system: UACC-257 melanoma
SF-295 CNS = test system: SF-295 CNS
ACHN renal = test system: ACHN renal
MALME-3M melanoma = test system: MALME-3M melanoma
NCI-H460 lung = test system: NCI-H460 lung
HL-60(TB) leukemia = test system: HL-60(TB) leukemia
HCC-2998 colon = test system: HCC-2998 colon
HS 578T breast = test system: HS 578T breast
UACC-62 melanoma = test system: UACC-62 melanoma
NCI-H226 lung = test system: NCI-H226 lung
OVCAR-8 ovarian = test system: OVCAR-8 ovarian
HCT-116 colon = test system: HCT-116 colon
MCF7 breast = test system: MCF7 breast
CAKI-1 renal = test system: CAKI-1 renal
U251 CNS = test system: U251 CNS
BT-549 breast = test system: BT-549 breast
MDA-MB-231 breast = test system: MDA-MB-231 breast
NCI-H522 lung = test system: NCI-H522 lung
SF-539 CNS = test system: SF-539 CNS
OVCAR-3 ovarian = test system: OVCAR-3 ovarian
MDA-MB-435 = test system: MDA-MB-435
OVCAR-4 ovarian = test system: OVCAR-4 ovarian
SF-268 CNS = test system: SF-268 CNS
MOLT-4 leukemia = test system: MOLT-4 leukemia
SW-620 colon = test system: SW-620 colon
K-562 leukemia = test system: K-562 leukemia
DU-145 prostate = test system: DU-145 prostate
786-0 renal = test system: 786-0 renal
UO-31 renal = test system: UO-31 renal

## COc1ccc(C2=NOC3=c4ccccc4=CSC3=C2c2ccccc2)cc1
A549 NSCLC
  GI50: > 100 µM
  TGI: > 100 µM
T-47D breast
  GI50: 30.3 µM
  TGI: 73.9 µM
A498 renal
  TGI: > 100 µM
CCRF-CEM leukemia
  GI50: 21.7 µM
  TGI: > 100 µM
COLO 205 colon
  GI50: 48.7 µM
  TGI: > 100 µM
RPMI-8226 leukemia
  GI50: 25.3 µM
  TGI: > 100 µM
SNB-19 CNS
  GI50: 34.7 µM
  TGI: > 100 µM
HOP-62 NSCLC
  GI50: 17.3 µM
  TGI: > 100 µM
KM12 colon
  GI50: 57.7 µM
  TGI: > 100 µM
OVCAR-5 ovarian
  GI50: 80.1 µM
  TGI: > 100 µM
SK-MEL-2 melanoma
  GI50: 75.3 µM
  TGI: > 100 µM
SK-MEL-5 melanoma
  GI50: 16.5 µM
  TGI: 39.7 µM
NCI-H23 lung
  GI50: 46.2 µM
  TGI: > 100 µM
TK-10 renal
  GI50: 54 µM
  TGI: > 100 µM
HCT-15 colon
  GI50: 22.3 µM
  TGI: > 100 µM
RXF 393 renal
  GI50: 22.2 µM
  TGI: 63.7 µM
HOP-92 NSCLC
  GI50: 23.6 µM
  TGI: 83.2 µM
HT29 colon
  GI50: 37.1 µM
  TGI: > 100 µM
PC-3 prostate
  GI50: 20.5 µM
  TGI: > 100 µM
M14 melanoma
  GI50: 26.3 µM
  TGI: > 100 µM
SK-OV-3 ovarian
  GI50: > 100 µM
  TGI: > 100 µM
EKVX NSCLC
  GI50: 94 µM
  TGI: > 100 µM
NCI/ADR-RES ovarian
  GI50: 41.7 µM
  TGI: > 100 µM
LOX IMVI melanoma
  GI50: 44.8 µM
  TGI: > 100 µM
SNB-75 CNS
  GI50: > 100 µM
  TGI: > 100 µM
SK-MEL-28 melanoma
  GI50: 37.7 µM
  TGI: > 100 µM
SN12C renal
  GI50: 22 µM
  TGI: 68.9 µM
IGROV1 ovarian
  GI50: 45.8 µM
  TGI: > 100 µM
UACC-257 melanoma
  GI50: 69.6 µM
  TGI: > 100 µM
SF-295 CNS
  GI50: 48.9 µM
  TGI: > 100 µM
ACHN renal
  GI50: 73.7 µM
  TGI: > 100 µM
MALME-3M melanoma
  GI50: 43.7 µM
  TGI: > 100 µM
NCI-H460 lung
  GI50: 21.5 µM
  TGI: 89 µM
HL-60(TB) leukemia
  GI50: 39.7 µM
  TGI: > 100 µM
HCC-2998 colon
  GI50: > 100 µM
  TGI: > 100 µM
HS 578T breast
  GI50: 47.4 µM
  TGI: > 100 µM
UACC-62 melanoma
  GI50: 22 µM
  TGI: 85 µM
NCI-H226 lung
  GI50: 20.2 µM
  TGI: 79.8 µM
OVCAR-8 ovarian
  GI50: 42.9 µM
  TGI: > 100 µM
HCT-116 colon
  GI50: 12.8 µM
  TGI: > 100 µM
MCF7 breast
  GI50: 24.2 µM
  TGI: 62.9 µM
CAKI-1 renal
  GI50: 64.7 µM
  TGI: > 100 µM
U251 CNS
  GI50: 25.2 µM
  TGI: > 100 µM
BT-549 breast
  GI50: 24 µM
  TGI: 77 µM
MDA-MB-231 breast
  GI50: 20.3 µM
  TGI: 76 µM
NCI-H522 lung
  GI50: > 100 µM
  TGI: > 100 µM
SF-539 CNS
  GI50: 13.3 µM
  TGI: 37.5 µM
OVCAR-3 ovarian
  GI50: 25 µM
  TGI: 79.5 µM
MDA-MB-435
  GI50: 42.9 µM
  TGI: > 100 µM
OVCAR-4 ovarian
  GI50: 49.7 µM
  TGI: > 100 µM
SF-268 CNS
  GI50: 23.5 µM
  TGI: 79.6 µM
MOLT-4 leukemia
  GI50: > 100 µM
  TGI: > 100 µM
SW-620 colon
  GI50: 28.9 µM
  TGI: > 100 µM
K-562 leukemia
  GI50: 51.2 µM
  TGI: > 100 µM
DU-145 prostate
  GI50: 19.8 µM
  TGI: > 100 µM
786-0 renal
  GI50: 27.5 µM
  TGI: > 100 µM
UO-31 renal
  GI50: 39.2 µM
  TGI: > 100 µM
